US9023386B2, “Microspheres comprising nanocapsules containing a lipophilic drug” (Yissum Research Development Company of the Hebrew …, priority 2006, dated 2015)

How the values were obtained:
[1] = In-vitro stability of tacrolimus in rat intestinal juice (pH 6.5); assay type: in vitro ADME
Experimental: The following solutions were added sequentially to a test tube: 300 μl of freshly thawed intestinal juice, 60 μl of 0.6 M phosphate buffer, pH 6.5 (the pH of the mixture of intestinal juice) and 25 μg/ml of tacrolimus in various formulations (up to 1.5 ml). The mixtures were stirred and incubated at 37° C. over time. At given time intervals of 5, 10, 20, 30, 45, 60, 90 and 120 min, the samples were withdrawn from the incubation, mixed with 150 μl of 0.5 M hydrochloric acid and 2 ml of ethyl acetate. The resulting mixtures were stirred vigorously and centrifuged at 4000 rpm (equivalent to 3000 g) over 10 min. The extraction of tacrolimus by ethyl acetate was repeated three times to ensure total removal of the drug from the mixtures. The different ethyl acetate layers (upper layers) were transferred to clean tubes and evaporated under nitrogen to dryness. The combined residues were dissolved in 1 ml of acetonitrile, and 50 μl were injected in the HPLC under the following conditions: Mobile phase Acetonitrile 100%, Flow rate 0.5 ml/min, Wavelength—213 nm, Column—LiChrospher® 100 RP-18 (5 μm), 4/120 mm.

[2] = immunosuppression; cited from earlier work
[3] = cited from earlier work
P-gp = assay: Caco-2 uptake study (apparent permeability); assay type: in vitro ADME; settings: human; Caco-2, 25 μg/ml tacrolimus, Hanks buffer pH 7.4, 60 min, without verapamil
Experimental: Caco-2 monolayers (passage 73) were grown in Dulbecco's modified Eagle's medium supplemented with 10% fetal bovine serum, 1% L-glutamine, 1% nonessential amino acids, and 5% antibiotic-antimycotic solution at 37° C. in humidified air, 5% CO2 atmosphere. The culture medium was first replaced after 72 h and every 48 h thereafter. The uptake studies were conducted with monolayers between 8 to 10 days in culture. All diffusion experiments were performed over 1 h at 37° C. Prior to the experiments, the culture medium was replaced with transport medium and cell monolayers were subsequently equilibrated for 30 min at 37° C. before the uptake study. Transport medium was Hanks buffer composed of 136.89 mM NaCl, 5.36 mM KCl, 0.34 mM Na2HPO4, 0.44 mM KH2PO4, 0.41 mM MgSO4 7H2O, 19.45 mM glucose, 1.26 mM CaCl2, 0.49 mM MgCl2.6H2O, 4.17 mM NaHCO3, 10 mM HEPES, and the pH was adjusted to 7.4. […] The lysate was collected in clean tube and tacrolimus was determined by HPLC as described above. […]
The apparent permeability (Papp, cm/s) was calculated according to the following equation described by Schrickx and Fink-Gremmels (J. Schrickx and J. Fink-Gremmels. P-glycoprotein-mediated transport of oxytetracycline in the Caco-2 cell model. J. Vet Pharmacol. Therap. 30: 25-31 (2007).

tacrolimus stability incubated only with PBS (Control (−)) ([1]; PBS pH 6.5, no intestinal juice, 120 min incubation): remained intact | initial tacrolimus concentration decomposed / reduced ([1]; intestinal juice with PBS pH 6.5, 37° C., 25 μg/ml tacrolimus, up to 120 min): at least 50% | Papp at 60 min, 25 μg/ml (P-gp): 2.05 ± 0.26 ×10⁻⁶ cm/s
SMILES: C=CC[C@@H]1/C=C(\C)C[C@H](C)C[C@H](OC)[C@H]2O[C@@](O)(C(=O)C(=O)N3CCCC[C@H]3C(=O)O[C@H](/C(C)=C/[C@@H]3CC[C@@H](O)[C@H](OC)C3)[C@H](C)[C@@H](O)CC1=O)[C@H](C)C[C@@H]2OC [tacrolimus]
potency relative to cyclosporine [2]: 10-100 times | oral bioavailability ([3]; in vivo, po): 10-25% | dose excreted unchanged in the urine ([3]; in vivo): Less than 1% | drug bound by erythrocytes ([3]; in vivo): 75-80% | whole blood concentrations relative to plasma concentrations ([3]; in vivo): 10- to 30 times | elimination half-life ([3]; liver transplant patients): about 12 hours
